Data set [1] is described as follows: Absorption spectrum analysis of natural pigments (UV/Vis). It is filed as physicochemical. To be noted: 100 μM β-carotene, 60 μM anthocyanins, 40 μM chlorophyll a. Here is the method: In order to analyze the absorbance spectra of three natural pigments (i.e., β-carotene, delphinidin chloride (anthocyanin), and chlorophyll a (Sigma-Aldrich)), the absorbance analysis was performed using a UV/Vis NANO spectrophotometer (Nabi).
In the drawing, “Experimental result” corresponds to the actually-measured absorption spectrum, and “Calculated result” represents the result of added-up values of the absorption spectrum of single natural pigments.
The results of the absorption spectrum analysis over time by mixing 100 µM B-carotene, 60 μM anthocyanin, and 40 μM chlorophyll a in various combinations are shown in FIG. 2E to 2H.

The test system of data set [2] is mitochondrial electron transport chain protein complexes. The data set is described as follows: ATP production after treatment with inhibitors of electron transport chain protein complexes. It counts as biochemical, human. To be noted: 2 μM inhibitor, 1 hour; C@mt; light 640-680 nm, 5 mW, 80 minutes. The protocol:
It is generally known that ATP is produced through protein complexes involved in the electron transport process during the oxidative phosphorylation process of mitochondria. Accordingly, an analysis was performed using the ATP Assay Kit (Abcam) to evaluate the amount of ATP production when treating with inhibitors for each protein complex.
A total of 50 μL of mitochondria including each combination of natural pigments (C@mt, BC@mt, AC@mt, or BAC@mt) and 2 μM of inhibitors (Rotenone, Malonate, Antimycin A or Cyanide) for each protein complex were added to the E-tube and incubated at room temperature for 1 hour. Then, the supernatant was removed using a centrifuge (12,000 g, 15 minutes) and resuspended in 50 μL of PBS. 50 μL of mitochondria including a combination of natural pigments treated with inhibitors were added to each 96-well black plate, and irradiated with light having a wavelength of 640-680 nm at an intensity of 5 mW for 80 minutes. […]
Then, the amount of ATP production was measured by measuring the fluorescence intensity (Ex/Em=535/587 nm) using a microplate reader. The amount of ATP production was calculated by subtracting the fluorescence value measured upon irradiation with light for 0 minutes from the fluorescence value measured upon irradiation with light for 80 minutes, and the results are shown in FIGS. 8A and 8B.

Several values for one entry are separate records, joined by “and”; a condition that tells them apart may be missing. Identical values can stand only once.

Results on four compounds are retold here after US20250367167A1, “COMPOSITION FOR MITOCHONDRIAL MODIFICATION COMPRISING A COMBINATION OF TWO OR MORE NATURAL PIGMENTS” (University of Seoul Industry Cooperation Foundation, priority 2024, published 2025).

`Oc1cc(O)c2cc(O)c(-c3cc(O)c(O)c(O)c3)[o+]c2c1` [anthocyanins, delphinidin chloride]: the “wavelength of high absorbance (absorption spectrum)” value (“wavelength of high absorbance” below) in data set [1] stood at 555 nm. As to `O=C(O)CC(=O)O` [malonate, Malonate], in data set [2], the “ATP production after inhibitor treatment” value was “rapid decrease”. Take `C=Cc1c(C)c2cc3nc(c4c5[n-]c(cc6nc(cc1[n-]2)C(C)=C6CC)c(C)c5C(=O)[C@@H]4C(=O)OC)[C@@H](CCC(=O)OC/C=C(\C)CCC[C@H](C)CCC[C@H](C)CCCC(C)C)[C@@H]3C.[Mg+2]` [chlorophyll a]: the “wavelength of high absorbance” value in data set [1] was 415 nm and 662 nm. Regarding `CC1=C(/C=C/C(C)=C/C=C/C(C)=C/C=C/C=C(C)/C=C/C=C(C)/C=C/C2=C(C)CCCC2(C)C)C(C)(C)CCC1` [β-carotene], in data set [1], the “wavelength of high absorbance” value is reported as 475 nm.
